Values quoted from earlier work, collected in PMC7395068, “The evolution of strategies to minimise the risk of human drug-induced liver injury (DILI) in drug discovery and development” (Archives of Toxicology, 2020).
Structures can show the parent of a compound that is named as a salt. Where two headings read alike, the source gives them in different places.

How the values were obtained:
human hepatocytes = settings: cited from earlier work
[1] = cited from earlier work
[2] = cited from earlier work; remark: listed apart in the source
[3] = system: THLE or HepG2 cells, isolated mitochondria, BSEP; settings: cited from earlier work
[4] = system: primary human hepatocytes, NIH3T3 fibroblasts, BSEP, CYP3A4; settings: cited from earlier work
[5] = In vitro Assay, ref Schadt 2015

Compound	Structural based (HCI) (human hepatocytes; In vitro Assay, ref Xu 2008)	DILI +VE (5-8), DILI -VE (-4) ([1]; ref Chen 2016)	DILI severity category ([1]; ref Chen 2016)	In vivo DILI ([2]; ref Xu 2008)	Partition Hybrid HRM Score ([3]; In vitro Assay, ref Aleo 2019)	Ro2 Hybrid HRM Score ([3]; In vitro Assay, ref Aleo 2019)	also measured
Oc1ncnc2[nH]ncc12 [allopurinol]	+VE	+VE	vMost-DILI-Concern	+VE	+VE	-VE	In vivo DILI ([2]; […]): +VE; In vivo DILI ([2]; ref Aleo 2019): +VE
COc1cc2c(c(OC)c1OC)-c1ccc(OC)c(=O)cc1[C@@H](NC(C)=O)CC2 [colchicine]	–	–	–	–	–	–	Structural based (HCI) (human hepatocytes): -VE; Partition Hybrid HRM Score [3]: -VE; Cellular toxicity (3T3 cells) [4]: +VE; Combined Assay [4]: -VE; GSH adduct HML [4]: -VE; Hepatocyte cellular toxicity [4]: -VE; MitoTox 3T3 [4]: -VE; TDI CYP3A4 [4]: -VE; hBSEP inhibition [4]: -VE
CC(=O)N(O)CCCCCNC(=O)CCC(=O)N(O)CCCCCNC(=O)CCC(=O)N(O)CCCCCN [deferoxamine]	+VE	+VE	vLess-DILI-Concern	+VE	+VE	+VE	In vivo DILI ([2]; ref Aleo 2019): +VE
C[C@H]1O[C@@H](O[C@H]2[C@@H](O)C[C@H](O[C@H]3[C@@H](O)C[C@H](O[C@H]4CC[C@@]5(C)[C@H](CC[C@@H]6[C@@H]5C[C@@H](O)[C@]5(C)[C@@H](C7=CC(=O)OC7)CC[C@]65O)C4)O[C@@H]3C)O[C@@H]2C)C[C@H](O)[C@@H]1O [digoxin]	-VE	–	–	–	–	-VE	Partition Hybrid HRM Score [3]: -VE; Cellular toxicity (3T3 cells) [4, 5]: -VE; Combined Assay [4, 5]: -VE; GSH adduct HML [4, 5]: -VE; Hepatocyte cellular toxicity [4, 5]: -VE; MitoTox 3T3 [4, 5]: -VE; TDI CYP3A4 [4, 5]: -VE; hBSEP inhibition [4, 5]: -VE
C=C1CC[C@H](O)C/C1=C/C=C1\CCC[C@]2(C)[C@@H]([C@H](C)/C=C/[C@H](C)C(C)C)CC[C@@H]12 [ergocalciferol]	-VE	-VE	vNo-DILI-Concern	-VE	-VE	-VE	In vivo DILI ([2]; ref Aleo 2019): -VE
COc1cc([C@@H]2c3cc4c(cc3[C@@H](O[C@@H]3O[C@@H]5CO[C@@H](C)O[C@H]5[C@H](O)[C@H]3O)[C@H]3COC(=O)[C@H]23)OCO4)cc(OC)c1O [etoposide]	-VE	+VE	vLess-DILI-Concern	+VE	–	–	In vivo DILI ([2]; […]): +VE; In vivo DILI ([2]; ref O'Brien 2006): +VE; In vivo DILI ([2]; ref Persson 2013): +VE; In vivo DILI ([2]; ref Tolosa 2012): +VE
CC(=O)OCC(=O)[C@@]1(O)CC[C@H]2[C@@H]3CCC4=CC(=O)CC[C@]4(C)[C@@]3(F)[C@@H](O)C[C@@]21C [fludrocortisone acetate]	-VE	–	–	-VE	-VE	-VE	In vivo DILI ([2]; ref Aleo 2019): -VE
NCC1(CC(=O)O)CCCCC1 [gabapentin]	-VE	+VE	vLess-DILI-Concern	-VE	–	–	In vivo DILI ([2]; ref Vorrink 2018): -VE
Cc1ccc(C)c(OCCCC(C)(C)C(=O)O)c1 [gemfibrozil]	+VE	+VE	vMost-DILI-Concern	+VE	–	–	–
NS(=O)(=O)c1cc2c(cc1Cl)NCNS2(=O)=O [hydrochlorothiazide]	–	–	–	–	–	–	Structural based (HCI) (human hepatocytes): +VE; DILI +VE (5-8), DILI -VE (-4) ([1]; in vivo): +VE; DILI severity category ([1]; in vivo): vLess-DILI-Concern; In vivo DILI ([2]; in vivo): +VE
CC(=O)[C@]1(O)Cc2c(O)c3c(c(O)c2[C@@H](O[C@H]2C[C@H](N)[C@H](O)[C@H](C)O2)C1)C(=O)c1ccccc1C3=O [idarubicin]	–	–	–	–	–	–	Structural based (HCI), In vitro Assay (human hepatocytes; human hepatocyte imaging, ref Xu 2008): -VE; DILI +VE (5-8), DILI -VE (-4) ([1]; binary in vivo human DILI call, ref Chen 2016): -VE; DILI severity category ([1]; human DILI, LTKB DILIrank category, ref Chen 2016): Ambiguous DILI-concern; In vivo DILI ([2]; assignment in Xu 2008, ref Xu 2008): -VE
CC(COc1ccccc1)NC(C)C(O)c1ccc(O)cc1 (stereo not shown) [isoxsuprine]	–	–	–	–	–	–	Structural based (HCI), In vitro Assay (human hepatocytes): -VE; DILI +VE (5-8), DILI -VE (-4) ([1]; in vivo): -VE; DILI severity category ([1]; in vivo): vNo-DILI-Concern; In vivo DILI ([2]; in vivo): -VE
CC(C)NCC(O)c1cc(O)cc(O)c1 (stereo not shown) [metaproterenol sulfate]	-VE	–	–	–	-VE	-VE	–
CC[C@@H](CO)NC(=O)[C@@H]1C=C2c3cccc4c3c(cn4C)C[C@H]2N(C)C1 [methysergide maleate]	-VE	–	–	-VE	–	–	In vivo DILI ([2]; ref Aleo 2019): -VE; Partition Hybrid HRM Score [3]: -VE; Ro2 Hybrid HRM Score [3]: -VE
Cc1ncc([N+](=O)[O-])n1CCO [metronidazole]	+VE	–	–	–	-VE	-VE	–
CN[C@@H](C)[C@@H](O)c1ccccc1 [pseudoephedrine]	–	–	–	–	–	–	Structural based (HCI), In vitro Assay (human hepatocytes): -VE; DILI +VE (5-8), DILI -VE (-4) ([1]; in vivo): -VE; DILI severity category ([1]; in vivo): vNo-DILI-Concern; In vivo DILI ([2]; in vivo): -VE
NC(=O)c1ncn([C@@H]2O[C@H](CO)[C@@H](O)[C@H]2O)n1 [ribavirin]	-VE	-VE	Ambiguous DILI-concern	-VE	-VE	-VE	–
CN[C@H]1CC[C@@H](c2ccc(Cl)c(Cl)c2)c2ccccc21 [sertraline]	-VE	+VE	vLess-DILI-Concern	-VE	–	–	In vivo DILI ([2]; […]): -VE
CC(=O)S[C@@H]1CC2=CC(=O)CC[C@]2(C)[C@H]2CC[C@@]3(C)[C@@H](CC[C@@]34CCC(=O)O4)[C@H]12 [spironolactone]	+VE	+VE	vLess-DILI-Concern	+VE	–	–	–
CC[C@H]1OC(=O)[C@H](C)C(=O)[C@H](C)[C@@H](O[C@@H]2O[C@H](C)C[C@H](N(C)C)[C@H]2O)[C@](C)(OC)C[C@@H](C)C(=O)[C@H](C)[C@H]2N(CCCCn3cnc(-c4cccnc4)c3)C(=O)O[C@]12C [telithromycin]	+VE	+VE	vMost-DILI-Concern	+VE	+VE	+VE	In vivo DILI ([2]; ref Aleo 2019): +VE
Nc1nc2nc[nH]c2c(=S)[nH]1 [thioguanine]	-VE	–	–	–	-VE	-VE	–
CN1C(=O)OC(C)(C)C1=O [trimethadione]	-VE	-VE	Ambiguous DILI-concern	+VE	–	–	–
C[C@H](CCC(=O)O)[C@H]1CC[C@H]2[C@@H]3[C@@H](O)C[C@@H]4C[C@H](O)CC[C@]4(C)[C@H]3CC[C@]12C [ursodeoxycholic acid]	-VE	-VE	Ambiguous DILI-concern	-VE	–	–	–
bacitracin	-VE	-VE	vNo-DILI-Concern	-VE	–	–	–
